The values that follow come from patent publication US5886000A, “Anti-HIV agent” (Nissui Pharmaceutical Co., Ltd,, priority 1994, dated 1999).

Usually inhibition stands for how much of the control response was suppressed.

One series relates to CEM/LAV-1. Nature of the series: Anti-HIV activity in persistently infected CEM/LAV-1 cells. Format: cell-based. Here is the method: (§1) Predetermined concentrations of test agents were separately added to cells (2×10^5 cells/ml, 10 ml) persistently infected with HIV in a logarithmic growth phase to culture them for 96 hours, thereby counting the number of living cells and the number of killed cells every 24 hours by a trypan blue dye exclusion test to determine the cytotoxic effects of the test agents on the cells. A viral infectious titer (TCID50 /ml) in each of the culture solutions incubated for 96 hours was determined by 72-hour culture using, as an index, the giant cell formation of MT-4 cells. As a control, culture was conducted in a medium free of any agent. An anti-HIV activity (inhibition %) was determined in accordance with the following equation. [formula]

For the next series, the system named is H9 /MN. As to the kind of experiment: Anti-HIV activity in persistently infected H9 /MN cells. Format: cell-based. Here is the method:
as §1

The next series deals with Molt-4/IIIB. As to the kind of experiment: Anti-HIV activity in persistently infected Molt-4/IIIB cells. Format: cell-based. As to conditions: Human immunodeficiency virus 1, IIIB, read-out: Anti-HIV activities (inhibition %). The procedure:
as §1

The test system of another series is U937 /RF. Nature of the series: Anti-HIV activity in persistently infected U937 /RF cells. Format: cell-based. Here is the method:
as §1

The subject of a further series is AIDS. The note with it: clinical use; cited from earlier work.
For another series, the target named is T1, Tat (Human immunodeficiency virus type 1 group M subtype B, UniProt P04608).
T1 construct: expressed in transfected cells; host or cells: COS-7 cells
T1 sequence (P04608 whole entry): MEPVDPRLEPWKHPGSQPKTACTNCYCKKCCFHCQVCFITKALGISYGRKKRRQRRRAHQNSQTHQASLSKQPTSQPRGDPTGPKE
As to the kind of experiment: Tat-inhibiting effect (reporter plasmid and Tat activator plasmid cotransfected into COS-7 cells). Format: cell-based, HIV. The procedure:
After a reporter plasmid and an activator plasmid of Tat were cotransfected into COS-7 cells by a DEAE dextran method to culture the cells at 37° C. for 24 hours in the presence of 5% CO2, the transfectant was added to 96-well microplates, in which a test agent had been placed in advance, in a proportion of 1×10^4 cells/well, followed by reculture at 37° C. for 3 days in the presence of 5% CO2. A supernatant (50 μl) of each of the cultures was then added to another 96-well microplate in which p-nitrophenyl phosphate as a substrate and a buffer had been placed, followed by incubation at 37° C. for 3 hours. The variation in absorbance at 405 nm due to p-nitrophenol formed was then measured to determine the presence of a Tat-inhibiting effect.

In another series the test system is CEM cells. As to the kind of experiment: Cytotoxicity test, CEM cells (trypan blue dye exclusion). The format is cell-based. As to conditions: concentrations not greater than 500 μM. The procedure:
(§2) Culture solutions (10 ml) of CEM and a strain CEM/LAV persistently producing HIV-1, both, in a logarithmic growth phase were prepared with media containing various concentrations of a test agent so as to give a concentration of 2.5×10^5 cells/ml, followed by culture at 37° C. in the presence of 5% CO2. After pipetting each cells culture solution every 24 hours, it was collected to count the number of living cells and the number of killed cells by a trypan blue dye exclusion test.

In the next series the test system is CEM/LAV cells. As to the kind of experiment: Cytotoxicity test, CEM/LAV cells persistently producing HIV-1 (trypan blue dye exclusion). The format is cell-based. The note with it: 500 μM. The procedure:
as §2

In series [1] the test system is primarily infected CEM cells. As to the kind of experiment: Effect on growth of primarily infected CEM cells. The format is cell-based, HIV-1. The note with it: concentrations not greater than 500 μM. The procedure:
(§3) Cells were collected from a culture solution (1.0×10^6 cells/ml, 108 ml) of CEM in a logarithmic growth phase by centrifugation (260×g, 5 minutes). An HIV-1 virus solution (12×10^5 TCID50) was added to the cells to culture them at 37° C. for 24 hours in 180 ml of a medium, thereby adsorbing the virus thereon. After a culture supernatant containing the virus was then removed by centrifugation (260×g, 5 minutes), and the residue was washed three times with 50 ml of an RPMI-1640 basal medium under centrifugation (260×g, 5 minutes), media separately containing predetermined concentrations of test agents were used to prepare cell suspensions (1×10^5 cells/ml, 50 ml×2 sample for each concentration of the test agents). Each of these cell culture solutions was collected in 25-ml portions every 24 hours until 96 hours passed by. The collected solutions were subjected to SDS-PAGE, followed by western immunoblotting to detect virus-constituting proteins. Incidentally, an HIV-1 positive serum was used as a primary antibody.

The subject of series [2] is HIV-1 in primarily infected CEM cells. As to the kind of experiment: Viral infectious titer in culture supernatant of primarily infected CEM cells. Format: cell-based. The note with it: Human immunodeficiency virus 1, CCRF-CEM, % of a control.
The test system of series [3] is HIV-constituting proteins (p24, p41). Nature of the series: Detection of HIV-constituting proteins by western immunoblotting, primarily infected CEM cells. The format is cell-based, HIV-1. The note with it: 500 μM. Here is the method:
as §3
Background: A western blot detects proteins with antibodies after separation by electrophoresis.

The subject of series [4] is CEM/LAV-1, H9 /MN and Molt-4/IIIB cells. Nature of the series: Anti-HIV activity, summary over CEM/LAV-1, H9 /MN and Molt-4/IIIB cells. The format is cell-based. As to conditions: 500 μM. Here is the method:
as §1

Setting [5] is: Human immunodeficiency virus 1, 50 μM, 96 hours, read-out: Anti-HIV activities (inhibition %).
Setting [6] is: Human immunodeficiency virus 1, 96 h, read-out: Anti-HIV activities (inhibition %).
Setting [7] is: COS-7, control = 100, read-out: Specific activity (%) (Average ± SE).
The mark [8] stands for this setting: Human immunodeficiency virus 1, 125 μM, 96 hours, read-out: Anti-HIV activities (inhibition %).
Where [9] appears, read: Human immunodeficiency virus 1, 500 μM, 96 hours, read-out: Anti-HIV activities (inhibition %).
Where [10] appears, read: Human immunodeficiency virus 1, U-937, 50 μM, 96 hours, read-out: Anti-HIV activities (inhibition %).

SMILES strings stand for the structures. Like-named read-outs stand apart in the source and are kept apart here.

On to `CC(=C(CCO)SSCC1CCCO1)N(C=O)Cc1cnc(C)nc1N` (stereo in doubt) [Fursultiamine, fursultiamine], for which the “anti-HIV activity (in words)” value in the series on CEM/LAV-1 (50 μM), in the series with H9 /MN (50 μM) and with U937 /RF (50 μM) was “marked anti-HIV activities” throughout. Further, the inhibition at 50 µM was determined as 95% in the series with CEM/LAV-1 (setting [5]); 96% in the series with H9 /MN (setting [6]); 0% in the series with Molt-4/IIIB (MOLT-4, 96 h); 60% with U937 /RF (Human immunodeficiency virus 1, U-937, 96 h, read-out: Anti-HIV activities (inhibition %)).

For the molecule `Cc1cn([C@H]2C[C@H](N=[N+]=[N-])[C@@H](CO)O2)c(=O)[nH]c1=O` [AZT, azidothymidine], the side effects entry in the series on AIDS was “headache, gastrointestinal disorders and a myelodepresant effect”.

As for `CC(=C(CCO)SSC(CCO)=C(C)N(C=O)Cc1cnc(C)nc1N)N(C=O)Cc1cnc(C)nc1N` [Thiamine disulfide, thiamine disulfide], the activity at 125 µM on Tat (setting [7]) came out at 92.3 ± 6.1%. For the same molecule, the activity at 250 µM at Tat (setting [7]) was 64.4 ± 6.1%. The activity at 500 µM at Tat (setting [7]) came to 36.1 ± 6.3%; in series [2], 0.3%. In addition, the “inhibition of the activity of Tat” value against Tat (concentrations of 125-500 μM) was “inhibited the activity of Tat in dependence on dose”. Also, the “effect on growth and proliferation of CEM cells” value in the series with CEM cells is “did not affect the growth and proliferation”. Also, the “effect on growth and proliferation of CEM/LAV cells” value in the series with CEM/LAV cells was “clearly inhibited the growth and proliferation”. Further, in the series on CEM/LAV cells, the “number of killed cells” value is recorded as “the number of killed cells did not increase”. Besides, the “effect on growth of primarily infected CEM cells” value in [1] is “did not affect the growth”. In addition, in [3], the “formation of p24 and p41 protein in culture supernatant” value is reported as “neither p24 protein nor p41 protein was formed”. Further, the inhibition at 125 µM is 51% with CEM/LAV-1 (setting [8]); 90% with H9 /MN (setting [8]); 80% in the series with Molt-4/IIIB (MOLT-4, 125 μM, 96 hours); 0% with U937 /RF (Human immunodeficiency virus 1, U-937, 125 μM, 96 hours, read-out: Anti-HIV activities (inhibition %)). The inhibition at 500 µM came to 90% in the series on CEM/LAV-1 (setting [9]); 99% in the series on H9 /MN (setting [9]); 97% in the series on Molt-4/IIIB (MOLT-4, 500 μM, 96 hours); 80% in the series with U937 /RF (Human immunodeficiency virus 1, U-937, 500 μM, 96 hours, read-out: Anti-HIV activities (inhibition %)). Besides, the “anti-HIV activity (in words)” value (with U937 /RF (concentration not given); in [4]) was “marked anti-HIV activities” throughout.

In the case of `O=C(O)CCCCC1CCSS1` (stereo not drawn) [α-Lipoic acid], the activity at 62.5 µM on Tat (COS-7, 62.5 μM, control = 100, read-out: Specific activity (%) (Average ± SE)) was found to be 78.8 ± 7.4%. For the same molecule, at Tat (setting [7]), the activity at 125 µM came out at 41.6 ± 9.9% and the activity at 250 µM was 17.5 ± 2.1%.

As to `N[C@@H](CCC(=O)N[C@@H](CS)C(=O)NCC(=O)O)C(=O)O` [Glutathione], the activity at 250 µM at Tat (setting [7]) came to 110 ± 17%.

`C=CCSSC(CCO)=C(C)N(C=O)Cc1cnc(C)nc1N` [Alitiamine, alitiamine]: in the series with CEM/LAV-1 (50 μM), the “anti-HIV activity (in words)” value is given as “marked anti-HIV activities”. Moreover, the inhibition at 50 µM came to 0% in the series with H9 /MN (setting [5]); 0% with Molt-4/IIIB (MOLT-4, 50 μM, 96 hours); 0% with U937 /RF (setting [10]).

For `CC(=C(CCOC(=O)C(C)C)SSC(CCOC(=O)C(C)C)=C(C)N(C=O)Cc1cnc(C)nc1N)N(C=O)Cc1cnc(C)nc1N` [Bisibutiamine, bisibutiamine], the inhibition at 50 µM worked out at 0% with CEM/LAV-1 (setting [6]); 60% in the series with H9 /MN (setting [5]); 0% with Molt-4/IIIB (MOLT-4, 50 μM, 96 hours); 0% in the series with U937 /RF (setting [10]). For the same molecule, the “anti-HIV activity (in words)” value in the series with H9 /MN (50 μM) is “marked anti-HIV activities”.

As for `CC(=O)N[C@@H](CS)C(=O)O` [N-Acetylcysteine], at Tat (setting [7]), the activity at 125 µM was 107 ± 13%, the activity at 250 µM came to 92 ± 8% and the activity at 500 µM is 81.5 ± 5.7%.
